From US20240110220A1, “DETECTING BETA-LACTAMASE ENZYME ACTIVITY” (COMMISSARIAT A L'ENERGIE ATOMIQUE ET AUX ENERGIES …, priority 2021, published 2024)

Tested on: bacterial colonies
Experiment: Validation of the rapid test strip on bacterial colonies sensitive or resistant to third-generation cephalosporins (Table 12)
Type: biochemical
Parameters: key: A signal on the TL is considered as “P”; An absence of signal on the TL is defined as “N”
Method: In order to validate the test strip on bacterial colonies for its clinical use, […].
In order to carry out these tests, all of the solutions below have been prepared in the buffer strip having, for composition: 0.1 M pH 8 Tris buffer/HCL+0.15 M NaCl+0.5% Tween 20+1% chaps+0.01% sodium azide. […] The tracer is in dried format on the CP. […] A CL was produced. It consists of anti-tracer antibodies. The migration is carried out in a plastic cassette.
A bacterial colony was sampled from an URI-4 agar with a 1 μl ose, then deposited in the previously prepared Eppendorf tube. The tube was vortexed for five seconds, then incubated for 30 minutes at ambient temperature. Once the incubation was finished, 100 μl was sampled and deposited on the test strip. The reading is carried out after 10 minutes migration. A signal on the TL is considered as “P”. An absence of signal on the TL is defined as “N”.

Which results are given for CO/N=C(\C(=O)N[C@@H]1C(=O)N2C(C(=O)O)=C(COC(C)=O)CS[C@H]12)c1csc(N)n1 [non-hydrolysed cefotaxime, cefotaxime]?
results of the test (C. freundii, CMY-135 + MOX-9 + OXA-372 + OXA-10, isolate number 1, strains capable of hydrolysing cefotaxime): P; results of the test (C. freundii, CMY-150 + LMB-1, isolate number 1, strains capable of hydrolysing cefotaxime): P; results of the test (C. freundii, CTX-M + VIM + OXA-48, isolate number 1, strains capable of hydrolysing cefotaxime): P; results of the test (C. freundii, CTX-M-1, isolate number 1, strains capable of hydrolysing cefotaxime): P; results of the test (C. freundii, CTX-M-15 + TEM-1 + CMY-48 + OXA-48 like, isolate number 1, strains capable of hydrolysing cefotaxime): P; results of the test (C. freundii, CTX-M-15, isolate number 1, strains capable of hydrolysing cefotaxime): P; results of the test (C. freundii, N/A, isolate number 1, strains not capable of hydrolysing cefotaxime): N; results of the test (C. freundii, SHV-12 + TEM-1 + OXA-48, isolate number 1, strains capable of hydrolysing cefotaxime): P; results of the test (C. freundii, SHV-12, isolate number 1, strains capable of hydrolysing cefotaxime): P; results of the test (C. freundii, TEM-1 + KPC-2, isolate number 1, strains capable of hydrolysing cefotaxime): P; results of the test (C. freundii, TEM-1 + VIM-2 + OXA-9 + OXA-10, isolate number 1, strains capable of hydrolysing cefotaxime): P; results of the test (C. freundii, TEM-1 + VIM-2, isolate number 1, strains capable of hydrolysing cefotaxime): P; results of the test (C. freundii, TEM-3 + Overexpressed AmpC, isolate number 2, strains capable of hydrolysing cefotaxime): P; results of the test (C. koserii, CTX-M-1, isolate number 1, strains capable of hydrolysing cefotaxime): P; results of the test (C. koserii, TEM-1 + OXA-48, isolate number 1, strains capable of hydrolysing cefotaxime): P; results of the test (E. asburiae, IMI-2, isolate number 2, strains not capable of hydrolysing cefotaxime): N; results of the test (E. asburiae, IMI-17, isolate number 1, strains not capable of hydrolysing cefotaxime): N; results of the test (E. cloacae, CTX-M-9, isolate number 1, strains capable of hydrolysing cefotaxime): P; results of the test (E. cloacae, FRI-1, isolate number 1, strains capable of hydrolysing cefotaxime): P; results of the test (E. cloacae, GES-6, isolate number 1, strains capable of hydrolysing cefotaxime): P; results of the test (E. cloacae, GIM-1, isolate number 1, strains capable of hydrolysing cefotaxime): P; results of the test (E. cloacae, IMI-1, isolate number 1, strains not capable of hydrolysing cefotaxime): N; results of the test (E. cloacae, IMI-3 + Overexpressed AmpC, isolate number 1, strains capable of hydrolysing cefotaxime): P; results of the test (E. cloacae, N/A, isolate number 2, strains not capable of hydrolysing cefotaxime): N; results of the test (E. cloacae, Overexpressed AmpC, isolate number 7, strains capable of hydrolysing cefotaxime): P; results of the test (E. cloacae, TEM-3, isolate number 1, strains capable of hydrolysing cefotaxime): P; results of the test (E. cloacae, TMB-1, isolate number 1, strains capable of hydrolysing cefotaxime): P; results of the test (E. coli, CTX-M + NDM-5 + OXA-181, isolate number 1, strains capable of hydrolysing cefotaxime): P; results of the test (E. coli, CTX-M + SHV + NDM-1 + OXA-48, isolate number 1, strains capable of hydrolysing cefotaxime): P; results of the test (E. coli, CTX-M-9 + TEM-1 + KPC-2, isolate number 1, strains capable of hydrolysing cefotaxime): P; results of the test (E. coli, CTX-M-15 + CMY-2 + OXA-204 + OXA-1, isolate number 1, strains capable of hydrolysing cefotaxime): P; results of the test (E. coli, CTX-M-15 + CMY-4 + OXA-204 + OXA-1, isolate number 1, strains capable of hydrolysing cefotaxime): P; results of the test (E. coli, CTX-M-15 + CMY-4 + OXA-204, isolate number 1, strains capable of hydrolysing cefotaxime): P; results of the test (E. coli, CTX-M-15 + CMY-6 + NDM-4, isolate number 1, strains capable of hydrolysing cefotaxime): P; results of the test (E. coli, CTX-M-15 + NDM-6 + OXA-1, isolate number 1, strains capable of hydrolysing cefotaxime): P; results of the test (E. coli, CTX-M-15 + OXA-232 + OXA-1, isolate number 1, strains capable of hydrolysing cefotaxime): P; results of the test (E. coli, CTX-M-15 + TEM-1 + CMY + NDM-1, isolate number 1, strains capable of hydrolysing cefotaxime): P; results of the test (E. coli, CTX-M-93, isolate number 1, strains not capable of hydrolysing cefotaxime): N; results of the test (E. coli, TEM-1 + CMY-16 + NDM-1 + OXA-1 + OXA-10, isolate number 1, strains capable of hydrolysing cefotaxime): P; results of the test (E. coli, TEM-1 + NDM-9 + OXA-1, isolate number 1, strains capable of hydrolysing cefotaxime): P; results of the test (K. oxytoca, CTX-M-15, isolate number 2, strains capable of hydrolysing cefotaxime): P; results of the test (K. oxytoca, DHA-1 + SHV-75, isolate number 1, strains capable of hydrolysing cefotaxime): P; results of the test (K. pneumoniae, CMY-4 + OXA-204, isolate number 1, strains capable of hydrolysing cefotaxime): P; results of the test (K. pneumoniae, CTX-M + KPC-3, isolate number 1, strains capable of hydrolysing cefotaxime): P; results of the test (K. pneumoniae, CTX-M + MCR-1, isolate number 2, strains capable of hydrolysing cefotaxime): P; results of the test (K. pneumoniae, CTX-M + NDM-1 + OXA-232, isolate number 1, strains capable of hydrolysing cefotaxime): P; results of the test (K. pneumoniae, CTX-M + NDM-4 + KPC-2, isolate number 1, strains capable of hydrolysing cefotaxime): P; results of the test (K. pneumoniae, CTX-M + NDM-5 + OXA-232, isolate number 1, strains capable of hydrolysing cefotaxime): P; results of the test (K. pneumoniae, CTX-M + OXA-370, isolate number 1, strains capable of hydrolysing cefotaxime): P; results of the test (K. pneumoniae, CTX-M + OXA-519, isolate number 1, strains capable of hydrolysing cefotaxime): P; results of the test (K. pneumoniae, CTX-M + SHV-11 + TEM-1 + OXA-162, isolate number 1, strains capable of hydrolysing cefotaxime): P; results of the test (K. pneumoniae, CTX-M + SHV-12 + GES-5, isolate number 1, strains capable of hydrolysing cefotaxime): P; results of the test (K. pneumoniae, CTX-M-2, isolate number 1, strains capable of hydrolysing cefotaxime): P; results of the test (K. pneumoniae, CTX-M-3 + SHV-1 + TEM-1 + VIM-19, isolate number 1, strains capable of hydrolysing cefotaxime): P; results of the test (K. pneumoniae, CTX-M-3, isolate number 1, strains capable of hydrolysing cefotaxime): P; results of the test (K. pneumoniae, CTX-M-8, isolate number 1, strains capable of hydrolysing cefotaxime): P; results of the test (K. pneumoniae, CTX-M-14 + SHV-11 + TEM-1, isolate number 1, strains capable of hydrolysing cefotaxime): P; results of the test (K. pneumoniae, CTX-M-15 + SHV-1 + TEM-1 + OXA-232 + OXA-1, isolate number 1, strains capable of hydrolysing cefotaxime): P; results of the test (K. pneumoniae, CTX-M-15 + SHV-1 + TEM-1, isolate number 1, strains capable of hydrolysing cefotaxime): P; results of the test (K. pneumoniae, CTX-M-15 + SHV-1, isolate number 1, strains capable of hydrolysing cefotaxime): P; results of the test (K. pneumoniae, CTX-M-15 + SHV-11 + TEM-1 + NDM-1 + OXA-1 + OXA-181, isolate number 1, strains capable of hydrolysing cefotaxime): P; results of the test (K. pneumoniae, CTX-M-15 + SHV-11 + TEM-1 + NDM-1 + OXA-1, isolate number 1, strains capable of hydrolysing cefotaxime): P; results of the test (K. pneumoniae, CTX-M-15 + SHV-11, isolate number 1, strains capable of hydrolysing cefotaxime): P; results of the test (K. pneumoniae, CTX-M-15 + SHV-27 + TEM-1 + NDM-1 + OXA-1 + OXA-181, isolate number 1, strains capable of hydrolysing cefotaxime): P; results of the test (K. pneumoniae, CTX-M-15 + SHV-28 + TEM-1 + CMY + OXA-204, isolate number 1, strains capable of hydrolysing cefotaxime): P; results of the test (K. pneumoniae, CTX-M-15 + SHV-99 + TEM-1, isolate number 1, strains capable of hydrolysing cefotaxime): P; results of the test (K. pneumoniae, CTX-M-15 + TEM-1 + OXA-48, isolate number 1, strains capable of hydrolysing cefotaxime): P; results of the test (K. pneumoniae, CTX-M-15 + TEM, isolate number 1, strains capable of hydrolysing cefotaxime): P; results of the test (K. pneumoniae, CTX-M-15, isolate number 1, strains capable of hydrolysing cefotaxime): P; results of the test (K. pneumoniae, CTX-M-18, isolate number 1, strains capable of hydrolysing cefotaxime): P; results of the test (K. pneumoniae, CTX-M-19, isolate number 1, strains capable of hydrolysing cefotaxime): P; results of the test (K. pneumoniae, DHA-2, isolate number 1, strains capable of hydrolysing cefotaxime): P; results of the test (K. pneumoniae, GES-1, isolate number 1, strains capable of hydrolysing cefotaxime): P; results of the test (K. pneumoniae, IMP-8, isolate number 1, strains capable of hydrolysing cefotaxime): P; results of the test (K. pneumoniae, KPC + VIM, isolate number 1, strains capable of hydrolysing cefotaxime): P; results of the test (K. pneumoniae, KPC-3, isolate number 1, strains capable of hydrolysing cefotaxime): P; results of the test (K. pneumoniae, KPC-4 + NDM-7, isolate number 1, strains capable of hydrolysing cefotaxime): P; results of the test (K. pneumoniae, MCR-1 + SHV-2 + SHV-106 + mgrB truncated in orf by IS5, isolate number 1, strains capable of hydrolysing cefotaxime): P; results of the test (K. pneumoniae, NDM-1, isolate number 1, strains capable of hydrolysing cefotaxime): P; results of the test (K. pneumoniae, NDM-5 + VIM-1 + OXA-181, isolate number 1, strains capable of hydrolysing cefotaxime): P; results of the test (K. pneumoniae, OXA-48, isolate number 1, strains capable of hydrolysing cefotaxime): P; results of the test (K. pneumoniae, OXA-163, isolate number 2, strains capable of hydrolysing cefotaxime): P; results of the test (K. pneumoniae, OXA-517, isolate number 1, strains capable of hydrolysing cefotaxime): P; results of the test (K. pneumoniae, SHV-2a, isolate number 1, strains capable of hydrolysing cefotaxime): P; results of the test (K. pneumoniae, SHV-5 + IMP-1, isolate number 1, strains capable of hydrolysing cefotaxime): P; results of the test (K. pneumoniae, SHV-5 + VIM-1, isolate number 2, strains capable of hydrolysing cefotaxime): P; results of the test (K. pneumoniae, SHV-11 + OXA-48, isolate number 1, strains capable of hydrolysing cefotaxime): P; results of the test (K. pneumoniae, SHV-11 + TEM-1 + KPC-3 + OXA-9, isolate number 1, strains capable of hydrolysing cefotaxime): P; results of the test (K. pneumoniae, SHV-11, isolate number 1, strains capable of hydrolysing cefotaxime): P; results of the test (K. pneumoniae, SHV-12 + IMP-8, isolate number 1, strains capable of hydrolysing cefotaxime): P; results of the test (K. pneumoniae, SHV-36 + TEM-1, isolate number 1, strains capable of hydrolysing cefotaxime): P; results of the test (K. pneumoniae, SHV-38, isolate number 1, strains capable of hydrolysing cefotaxime): P; results of the test (K. pneumoniae, TEM-3, isolate number 1, strains capable of hydrolysing cefotaxime): P; results of the test (P. mirabilis, ACC-1, isolate number 1, strains capable of hydrolysing cefotaxime): P; results of the test (P. mirabilis, CTX-M-71, isolate number 1, strains capable of hydrolysing cefotaxime): P; results of the test (P. mirabilis, N/A, isolate number 1, strains not capable of hydrolysing cefotaxime): N; results of the test (P. mirabilis, OXA-23, isolate number 1, strains not capable of hydrolysing cefotaxime): N; results of the test (P. mirabilis, OXA-58, isolate number 1, strains not capable of hydrolysing cefotaxime): N; results of the test (P. mirabilis, TEM-52, isolate number 1, strains capable of hydrolysing cefotaxime): P; results of the test (Salmonella spp., N/A, isolate number 1, strains not capable of hydrolysing cefotaxime): N
